Columns and labels:
[1] = system: pancreatic progenitor cells differentiated from human embryonic stem cells; assay: Flow cytometry detection of PDX1 in the pancreatic progenitor cell stage (human embryonic stem cells); format: cell-based; conditions: 2 μM inhibitor in pancreatic progenitor cell medium, 5 days, compared with control group without WNT inhibitor
Experimental: (§1) a pancreatic progenitor cell medium was prepared, the medium in step 1) was replaced with the pancreatic progenitor cell medium, and the cells were cultured in a carbon dioxide incubator at 37 degrees Celsius for 5 days, during which the medium was replaced every day, wherein the composition of the pancreatic progenitor cell medium was: with an MCDB131 medium as a basic medium, and the following components at the working concentrations were further included: 0.5% of bovine serum albumin (BSA), 1.5 g/L of sodium bicarbonate, 1×glutamine (GlutaMAX), 10 mM glucose, […], 1×insulin-transferrin-selenium-ethanolamine additive (ITS-X), 50 ng/ml of fibroblast growth factor 7 (KGF), 0.5 μM SANT1 (with smo as an inhibitor target), 100 nM retinoic acid (TTNPB), 500 nM phorbol 12,13-dibutyrate (PDBu), 2 μM ALK inhibitor (K02288), and 2 μM WNT signaling pathway inhibitor XAV-939 (not added in a control group), with the concentrations all being final concentrations. […]

[2] = system: pancreatic progenitor cells and pancreatic islet β cells differentiated from human induced pluripotent stem cells; assay: Real-time fluorescence quantitative PCR of PDX1, NKX6-1 and INS mRNA (human induced pluripotent stem cells); format: cell-based; conditions: qPCR
Experimental: as §1, with “factor” for “factor 7”

[3] = 2 μM inhibitor in pancreatic progenitor cell stage, GAPDH reference

Structure (SMILES): Oc1nc(-c2ccc(C(F)(F)F)cc2)nc2c1CSCC2 [XAV-939]
- PDX1-positive pancreatic progenitor cells (flow cytometry) [1]: significantly increased
- transcription level of the insulin gene INS in the mature pancreatic islet β cell stage ([2]; 2 μM inhibitor added in pancreatic progenitor cell stage): greatly increased
- relative expression of mRNA of NKX6-1 in pancreatic progenitor cells [2, 3]: significantly increased
- relative expression of mRNA of PDX1 in pancreatic progenitor cells [2, 3]: significantly increased

From patent publication US20220186188A1, “Method for Obtaining Pancreatic Progenitor Cells and Pancreatic Islet Beta Cells By Means of Differentiation of Human Pluripotent Stem Cells” (Asia Regenerative Medicine, Ltd., priority 2019, published 2022)
